Test results as given in US9028856B2, “Synergistic pesticide compositions” (priority 2008, dated 2015).

Assays:
[1] = system: Argentine ant, Linepithema humile; assay: Knockdown/mortality of ant workers under continuous exposure on treated glazed tile; conditions: continuous exposure; for Average % Mortality after 15 min: adjuvant = Compound A 1% + Compound B 0.5%
Summary of the method: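 0.5% AI imidacloprid in acetone, alone or with 0.1, 1.0 or 5.0% additive (benzenepropanoic acid, oleic acid, methyl oleate, methyl linoleate, methyl palmitate or BHA), 1 ml dried overnight on glazed tile (~161 cm^2). Ten workers confined under continuous exposure, water from 3 h; knockdown/mortality scored at intervals and 24 h; ≥3 replicates.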

[2] = system: susceptible/normal German cockroach (Monheim strain), Blattella germanica; assay: Knockdown/mortality of male cockroaches under continuous exposure on treated glazed tile; type: in vivo; conditions: glazed tile; for Average % Knockdown & Mortality after 3 hr / Average % Knockdown & Mortality after 5 hr / Average % Knockdown & Mortality after 24 hr / Average % Knockdown & Mortality after 1 hr: Table 61, German cockroach (Monheim), continuous exposure; for Average % Knockdown & Mortality after 1 hr: adjuvant = Compound A 1% + Compound B 0.5%
Summary of the method: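 Male cockroaches continuously exposed on treated glazed tile, dried overnight before exposure; at least three replicates. Knockdown/mortality scored at intervals from 5 or 10 min, over runs lasting 20 min to 24 h depending on test.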

[3] = system: Odorous House ant, Tapinoma sessile; assay: Knockdown/mortality of ant workers under continuous exposure on treated glazed tile; type: in vivo; conditions: Table 59, Odorous House ant, glazed tile, continuous exposure; for Average % Knockdown & Mortality after 15 min: adjuvant = Compound A 1% + Compound B 0.5%
Summary of the method: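 Treatments applied to about 161 cm2 glazed tile and dried overnight, with at least three replicates.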

[4] = system: Red Imported Fire ant (RIFA), Solenopsis invicta; assay: as above; type: in vivo; conditions: for Average % Mortality after 1 hr / Average % Mortality after 1.5 hr / Average % Mortality after 2 hr / Average % Mortality after 3 hr / Average % Mortality after 30 min: Table 60, Red Imported Fire ant, continuous exposure; for Average % Mortality after 30 min: adjuvant = Compound A 1% + Compound B 0.5%
From the text: Treatments were allowed to dry overnight. […] Treatments were replicated minimum three times.
(§1) Treatments were allowed to dry overnight. […] Treatments were replicated a minimum of three times.

[5] = system: housefly, Musca domestica; assay: Housefly continuous exposure on treated glazed tile (paper cup arena); type: in vivo; conditions: Table 58, housefly, glazed tile, continuous exposure; for Average % Knockdown & Mortality after 1 hr: adjuvant = Compound A 1% + Compound B 0.5%
From the text: Treatments were allowed to dry overnight. The housefly testing arena consisted of a 16 oz. paper cup where the bottom of the cup was removed and replaced with a piece of standard window screen. Ten adult houseflies (mixed ratio) were placed in each cup and covered with a 4″×5″ index card to prevent escape. Houseflies were continuously exposed to the treatment by inverting the testing arena and sliding the cup from the index card to the treated tile surface. Treatments were replicated a minimum of three times.

[6] = system: bait averse/resistant German cockroach (IHOP strain), Blattella germanica; assay: Knockdown/mortality of male cockroaches under continuous exposure on treated glazed tile; type: in vivo; conditions: German cockroach IHOP
Procedure: Treatments were allowed to dry overnight. […] Treatments were replicated a minimum of three times. Evaluations for cockroach knockdown/mortality were made at various intervals for 1 hour and at 24 hours after exposure.
Treatments were allowed to dry overnight. […] Evaluations for cockroach knockdown/mortality were made at various intervals and at 60 minutes after exposure.
as §1

[7] = Table 57, Argentine ant, glazed tile

| Structure (SMILES) | Average % Mortality after 30 min [1, 7] | Average % Mortality after 45 min [1, 7] | Average % Mortality after 60 min [1, 7] | Average % Mortality after 15 min [1, 7] | Average % Knockdown & Mortality after 3 hr [2] | Average % Knockdown & Mortality after 5 hr [2] | Average % Knockdown & Mortality after 24 hr [2] | Average % Knockdown & Mortality after 1 hr [2] | Average % Knockdown & Mortality after 30 min [3] | Average % Knockdown & Mortality after 45 min [3] | Average % Knockdown & Mortality after 60 min [3] | Average % Knockdown & Mortality after 2 hr [3] | Average % Knockdown & Mortality after 15 min [3] | Average % Mortality after 1 hr ([4]; glazed tile) | Average % Mortality after 1.5 hr ([4]; glazed tile) | Average % Mortality after 2 hr ([4]; glazed tile) | Average % Mortality after 3 hr ([4]; glazed tile) | Average % Mortality after 30 min ([4]; glazed tile) | Average % Knockdown & Mortality after 3 hr [5] | Average % Knockdown & Mortality after 5 hr [5] | further results |
| --- | --- | --- | --- | --- | --- | --- | --- | --- | --- | --- | --- | --- | --- | --- | --- | --- | --- | --- | --- | --- | --- |
| CC[S+]([O-])c1c(C#N)nn(-c2c(Cl)cc(C(F)(F)F)cc2Cl)c1N (stereo not shown) [Ethiprole (0.01%)] | 0% | 0% | 0% | 0% | 0% | 7% | 13% | 0% | 0% | 0% | 0% | 3% | 0% | 0% | 0% | 0% | 3% | 0% | 0% | 0% | Average % Mortality after 10 min ([1]; Table 54, Trial 1, acetone solution on glazed tile): 0%; Average % Mortality after 30 min ([1]; Table 54, Trial 1, glazed tile): 0%; Average % Mortality after 60 min ([1]; Table 54, Trial 1, glazed tile): 0%; Average % Mortality after 90 min ([1]; Table 54, Trial 1, glazed tile): 0%; Average % Mortality after 2 hr ([1]; Table 54, Trial 1, glazed tile): 0%; Average % Mortality after 4 hr ([1]; Table 54, Trial 1, glazed tile, 4 hr): 16%; Average % Mortality after 24 hr ([1]; Table 54, Trial 1, glazed tile): 100%; Average % Mortality after 10 min ([1]; Table 55, Trial 2, glazed tile): 0%; Average % Mortality after 30 min ([1]; Table 55, Trial 2, glazed tile): 0%; Average % Mortality after 60 min ([1]; Table 55, Trial 2, glazed tile): 0%; Average % Mortality after 90 min ([1]; Table 55, Trial 2, glazed tile): 0%; Average % Mortality after 2 hr ([1]; Table 55, Trial 2, glazed tile): 0%; Average % Mortality after 3 hr ([1]; Table 55, Trial 2, glazed tile, 3 hr): 6%; Average % Mortality after 24 hr ([1]; Table 55, Trial 2, glazed tile): 72%; Average % Knockdown & Mortality after 7 hr [5]: 3%; Average % Knockdown & Mortality after 24 hr [5]: 100%; Average % Knockdown & Mortality after 1 hr [5]: 0% |
| CC[S+]([O-])c1c(C#N)nn(-c2c(Cl)cc(C(F)(F)F)cc2Cl)c1N (stereo not shown) [Ethiprole (0.1%)] | 0% | 0% | 0% | 0% | 27% | 33% | 80% | 0% | 0% | 0% | 0% | 0% | 0% | 0% | 0% | 0% | 10% | 0% | 0% | 3% | Average % Knockdown & Mortality after 7 hr [5]: 10%; Average % Knockdown & Mortality after 24 hr [5]: 100%; Average % Knockdown & Mortality after 1 hr [5]: 0% |
| CC1(C)C(C=C(Cl)Cl)C1C(=O)OCc1cccc(Oc2ccccc2)c1 (stereo not shown) [permethrin, reference compound] | – | – | – | – | – | – | – | – | – | – | – | – | – | – | – | – | – | – | – | – | toxicity / efficacy of the substance alone (summary in words) [6]: very fast acting; toxicity / efficacy of the substance alone (summary in words) ([2]; German cockroach Monheim): effective; toxicity / efficacy of the substance alone (summary in words) ([4]; RIFA, glazed tile): active; time at which near 100% mortality was achieved ([4]; permethrin 0.5% AI with or without adjuvant (FIG. 39)): about 13 minutes |
